Measurements as given in patent publication US20060057696A1, “Sugar chain synthases” (priority 2002, published 2006).
Marks after values point to notes of the source that are not given here.

Columns and labels:
Assay type in all cases: biochemical
[1] = molecular target: T1, PA-mST6Gal II (mouse ST6Gal II) (Mus musculus, UniProt Q76K27, R48S); experiment: Sialyltransferase activity of PA-mST6Gal II toward acceptor substrates; settings: for Relative rate (%) Mouse ST6Gal II: PA-mST6Gal II, incorporation with Galβ1,4GlcNAc taken as 100, 0.5 mg/ml glycolipids, 1 mg/ml glycoproteins and oligosaccharides
T1 construct: amino acids 31-524 in the case of mouse ST6Gal II; signal peptide of mouse immunoglobulin IgM (N); made in house; host or cells: COS-7 cells, transient expression of pcDSA-mST6Gal II; protein recovered from medium on IgG-Sepharose
T1 sequence (Q76K27 31-524 R48S): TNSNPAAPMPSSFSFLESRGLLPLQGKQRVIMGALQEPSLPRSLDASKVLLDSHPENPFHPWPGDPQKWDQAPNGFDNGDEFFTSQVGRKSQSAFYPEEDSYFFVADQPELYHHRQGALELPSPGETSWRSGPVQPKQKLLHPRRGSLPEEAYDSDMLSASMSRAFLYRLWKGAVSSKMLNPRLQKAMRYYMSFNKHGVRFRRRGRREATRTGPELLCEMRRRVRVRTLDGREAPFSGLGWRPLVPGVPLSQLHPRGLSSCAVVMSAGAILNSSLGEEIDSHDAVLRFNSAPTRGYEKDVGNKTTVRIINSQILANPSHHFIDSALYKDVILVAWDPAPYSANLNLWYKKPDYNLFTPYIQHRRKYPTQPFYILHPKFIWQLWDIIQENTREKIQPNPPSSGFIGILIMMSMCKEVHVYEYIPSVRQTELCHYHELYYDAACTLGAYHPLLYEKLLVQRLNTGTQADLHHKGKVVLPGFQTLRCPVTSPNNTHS
Protocol: (§1) Using each expression vector and lipofectamine (Invitrogen), transient expression was carried out in COS-7 cells (Kojima, N. et al. (1995) FEBS Lett. 360, 1-4). The proteins of the present invention secreted from the cells into which each expression vector had been introduced were named as PA-hST6Gal II (human) and PA-mST6Gal II (mouse). PA-hST6Gal II and PA-mST6Gal II were adsorbed to IgG-Sepharose (Amersham Pharmacia Biotech), and were then recovered from medium. Sialyltransferase activity was measured as follows according to the method of Lee et al. (Lee, Y.-C. et al. (1999) J Biol. Chem. 274, 11958-11967). A reaction mixture (10 μl) containing 50 mM MES buffer (pH 6.0), 1 mM MgCl2, 1 mM CaCl2, 0.5% Triton CF-54, 100 μM CMP-[^14C]-NeuAc, a substrate sugar chain (which was added at 0.5 mg/ml in the case of glycolipids, and at 1 mg/ml in the case of glycoproteins or oligosaccharides), and a PA-hST6Gal II or PA-mST6Gal II suspension, was incubated at 37° C. for 3 to 20 hours. Thereafter, in the case of glycolipids, the reaction product was purified with a C-18 column (Sep-Pak Vac 100 mg; Waters) and the purified product was used as a sample. In the case of oligosaccharides or glycoproteins, the reaction product was directly used as a sample. Thus, the obtained sample was subjected to analysis. In the case of oligosaccharides or glycolipids, the sample was spotted on a silica gel 60 HPTLC plate (Merck), and it was then developed with a developing solvent consisting of 1-propanol:ammonia water:water=6:1:2.5 (for oligosaccharides), or a developing solvent consisting of chloroform:methanol: 0.02% CaCl2=55:45:10 (for glycolipids). In the case of glycoproteins, analysis was carried out by SDS-polyacrylamide gel electrophoresis. The obtained radioactivities were visualized with a BAS2000 radio image analyzer (Fuji Film) and then quantified.

[2] = molecular target: T2, human ST6Gal I (Homo sapiens, UniProt P15907); experiment: Sialyltransferase activity of human ST6Gal I toward acceptor substrates (comparison); settings: for Relative rate (%) Human ST6Gal I: incorporation with Galβ1,4GlcNAc taken as 100, 0.5 mg/ml glycolipids, 1 mg/ml glycoproteins and oligosaccharides
T2 sequence (P15907 1-406): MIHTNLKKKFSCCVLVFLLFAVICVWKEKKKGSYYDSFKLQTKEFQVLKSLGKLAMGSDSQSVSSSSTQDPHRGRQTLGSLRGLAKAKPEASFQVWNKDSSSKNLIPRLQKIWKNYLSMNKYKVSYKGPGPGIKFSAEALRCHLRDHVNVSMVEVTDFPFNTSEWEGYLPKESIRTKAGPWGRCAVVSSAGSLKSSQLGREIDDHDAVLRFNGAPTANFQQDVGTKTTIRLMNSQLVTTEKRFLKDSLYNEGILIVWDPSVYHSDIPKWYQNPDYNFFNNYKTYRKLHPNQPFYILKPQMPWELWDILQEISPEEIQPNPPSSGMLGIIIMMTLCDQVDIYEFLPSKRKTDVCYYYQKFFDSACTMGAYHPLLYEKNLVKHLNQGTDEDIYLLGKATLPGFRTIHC
Protocol: as §1
In contrast, there were no glycolipids, which could be substrates of both the enzymes, as far as the inventors have examined. The activity of human ST6Gal I on oligosaccharides was also examined for comparison. […] (FIG. 10).

[3] = molecular target: T3, PA-hST6Gal II (human ST6Gal II) (Homo sapiens, UniProt Q96JF0); experiment: Sialyltransferase activity of PA-hST6Gal II toward acceptor substrates; settings: for Relative rate (%) Human ST6Gal II: PA-hST6Gal II, incorporation with Galβ1,4GlcNAc taken as 100, 0.5 mg/ml glycolipids, 1 mg/ml glycoproteins and oligosaccharides
T3 construct: amino acids 33-529 in the case of human ST6Gal II; signal peptide of mouse immunoglobulin IgM (N); made in house; host or cells: COS-7 cells, transient expression of pcDSA-hST6Gal II; protein recovered from medium on IgG-Sepharose
T3 sequence (Q96JF0 33-529): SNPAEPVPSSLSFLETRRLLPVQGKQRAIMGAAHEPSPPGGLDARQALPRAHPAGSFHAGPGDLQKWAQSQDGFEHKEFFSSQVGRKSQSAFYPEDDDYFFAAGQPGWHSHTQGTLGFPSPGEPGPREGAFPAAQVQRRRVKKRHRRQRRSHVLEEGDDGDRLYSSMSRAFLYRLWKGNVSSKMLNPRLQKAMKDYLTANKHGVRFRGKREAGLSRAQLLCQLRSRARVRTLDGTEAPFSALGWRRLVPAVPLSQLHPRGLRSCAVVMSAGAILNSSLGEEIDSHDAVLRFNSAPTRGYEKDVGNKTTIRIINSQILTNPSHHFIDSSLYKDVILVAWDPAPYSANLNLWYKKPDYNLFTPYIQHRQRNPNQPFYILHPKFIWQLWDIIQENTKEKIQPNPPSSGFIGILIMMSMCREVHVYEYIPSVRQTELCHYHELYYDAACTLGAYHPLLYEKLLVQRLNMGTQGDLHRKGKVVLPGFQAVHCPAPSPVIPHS
Protocol: as §1

## Galβ1,4GlcNAc [Type II]
[1]; Mouse ST6Gal II, the value set as 100
  incorporation obtained with Galβ1,4GlcNAc: *, 2.74 pmol/h/ml medium.
[1]
  Relative rate (%) Mouse ST6Gal II: 100* %
[2]; Human ST6Gal I, the value set as 100
  incorporation obtained with Galβ1,4GlcNAc: ***, 8.14 pmol/h/ml medium.
[2]
  Relative rate (%) Human ST6Gal I: 100*** %
[3]; Human ST6Gal II, the value set as 100
  incorporation obtained with Galβ1,4GlcNAc: **, 1.03 pmol/h/ml medium.

## CC(=O)N[C@H]1C(O)O[C@H](CO)[C@H](O)[C@@H]1O[C@@H]1O[C@H](CO)[C@H](O)[C@H](O)[C@H]1O (stereo partly shown) [Type III, Galβ1,3GalNAc]
[1]
  Relative rate (%) Mouse ST6Gal II: 0%
[2]
  Relative rate (%) Human ST6Gal I: 0%
[3]
  Relative rate (%) Human ST6Gal II: 0%

## CC(=O)N[C@H]1[C@H](O[C@H]2[C@@H](O)[C@@H](CO)O[C@@H](O[C@H]3[C@H](O)[C@@H](O)C(O)O[C@@H]3CO)[C@@H]2O)O[C@H](CO)[C@@H](O[C@@H]2O[C@H](CO)[C@H](O)[C@H](O)[C@H]2O)[C@@H]1O (stereo partly shown) [Lacto-N-neotetraose, Galβ1,4GlcNAcβ1,3Galβ1,4Glc]
[1]
  Relative rate (%) Mouse ST6Gal II: 128.8%
[2]
  Relative rate (%) Human ST6Gal I: 101.6%
[3]
  Relative rate (%) Human ST6Gal II: 86.2%

## Galβ1,4GlcNAcβ1,3Galβ1,4Glcβ1-Cer [Paragloboside]
[1]
  Relative rate (%) Mouse ST6Gal II: 0%
[2]
  Relative rate (%) Human ST6Gal I: 0.3%
[3]
  Relative rate (%) Human ST6Gal II: 0%

## Galβ1,3GalNAcβ1,4Galβ1,4Glcβ1-Cer [GA1]
[1]
  Relative rate (%) Mouse ST6Gal II: 0%
[2]
  Relative rate (%) Human ST6Gal I: 0%
[3]
  Relative rate (%) Human ST6Gal II: 0%

## Galβ1,3GlcNAcβ1,3Galβ1,4Glc [Lacto-N-tetraose]
[1]
  Relative rate (%) Mouse ST6Gal II: 0%
[2]
  activity of human ST6Gal I on the substrate (in words): showed activity
  Relative rate (%) Human ST6Gal I: 31.1%
[3]
  Relative rate (%) Human ST6Gal II: 0%

## OC[C@H]1O[C@@H](O[C@H]2[C@H](O)[C@@H](O)C(O)O[C@@H]2CO)[C@H](O)[C@@H](O)[C@H]1O (stereo partly shown) [Lactose, Galβ1,4Glc]
[1]
  Relative rate (%) Mouse ST6Gal II: 0%
[2]
  activity of human ST6Gal I on the substrate (in words): showed activity
  Relative rate (%) Human ST6Gal I: 8.7%
[3]
  Relative rate (%) Human ST6Gal II: 0%
